Source: US10807944B2, “HDAC inhibitor compounds and methods of treatment” (priority 2014, dated 2020)

Tests used:
Format in all cases: biochemical
HDAC1 = HDAC1 (Homo sapiens (Human), UniProt Q13547); assay: HDAC1 in vitro inhibition, dose response; details: Table 2; read-out: HDAC 1 IC50
HDAC3 = HDAC3 (Homo sapiens (Human), UniProt O15379); assay: HDAC3 in vitro inhibition, dose response; details: Table 2; read-out: HDAC 3 IC50
HDAC2 = HDAC2 (Homo sapiens (Human), UniProt Q92769); assay: HDAC2 in vitro inhibition, dose response; details: Table 2; read-out: HDAC 2 IC50
HDAC2, sequence (Q92769 whole entry): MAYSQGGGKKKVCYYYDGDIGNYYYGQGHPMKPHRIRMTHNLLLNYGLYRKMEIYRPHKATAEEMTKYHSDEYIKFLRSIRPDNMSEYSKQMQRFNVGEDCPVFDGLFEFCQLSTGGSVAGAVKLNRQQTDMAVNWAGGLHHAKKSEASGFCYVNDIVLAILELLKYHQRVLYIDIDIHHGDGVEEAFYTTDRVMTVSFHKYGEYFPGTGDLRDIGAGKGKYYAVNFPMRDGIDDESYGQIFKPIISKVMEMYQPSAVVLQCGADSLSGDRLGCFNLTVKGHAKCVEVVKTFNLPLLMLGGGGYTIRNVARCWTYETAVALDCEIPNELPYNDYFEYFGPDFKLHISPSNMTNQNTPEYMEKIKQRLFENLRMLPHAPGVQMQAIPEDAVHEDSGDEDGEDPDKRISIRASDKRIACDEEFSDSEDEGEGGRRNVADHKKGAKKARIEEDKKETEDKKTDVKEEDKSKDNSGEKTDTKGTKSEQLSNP

HDAC1, sequence (Q13547 whole entry): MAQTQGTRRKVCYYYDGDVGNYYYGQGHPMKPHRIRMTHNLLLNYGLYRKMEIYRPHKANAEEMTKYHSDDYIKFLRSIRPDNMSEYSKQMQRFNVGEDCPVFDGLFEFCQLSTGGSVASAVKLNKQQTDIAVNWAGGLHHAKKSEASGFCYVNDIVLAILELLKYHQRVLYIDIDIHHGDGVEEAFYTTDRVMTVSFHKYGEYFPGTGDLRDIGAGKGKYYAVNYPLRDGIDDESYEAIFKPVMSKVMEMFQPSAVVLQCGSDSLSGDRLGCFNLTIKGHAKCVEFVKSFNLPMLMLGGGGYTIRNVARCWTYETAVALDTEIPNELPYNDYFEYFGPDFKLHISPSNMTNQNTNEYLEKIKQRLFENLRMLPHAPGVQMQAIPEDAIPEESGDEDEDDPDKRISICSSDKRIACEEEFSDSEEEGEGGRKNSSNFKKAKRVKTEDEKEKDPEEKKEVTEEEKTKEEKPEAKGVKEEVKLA
HDAC3, sequence (O15379 whole entry): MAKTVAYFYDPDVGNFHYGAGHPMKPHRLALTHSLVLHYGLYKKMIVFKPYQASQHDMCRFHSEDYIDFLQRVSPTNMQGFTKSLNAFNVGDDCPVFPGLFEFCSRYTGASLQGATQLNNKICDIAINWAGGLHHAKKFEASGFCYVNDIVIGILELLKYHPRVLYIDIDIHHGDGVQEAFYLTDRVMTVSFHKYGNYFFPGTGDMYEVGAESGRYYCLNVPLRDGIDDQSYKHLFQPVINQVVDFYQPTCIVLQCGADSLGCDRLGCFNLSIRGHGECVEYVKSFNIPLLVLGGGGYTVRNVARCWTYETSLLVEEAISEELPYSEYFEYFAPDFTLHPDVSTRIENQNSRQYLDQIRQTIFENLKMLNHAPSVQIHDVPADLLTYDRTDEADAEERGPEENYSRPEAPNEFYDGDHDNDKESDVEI
HDAC3, sequence (Q9Y618 395-489 partner): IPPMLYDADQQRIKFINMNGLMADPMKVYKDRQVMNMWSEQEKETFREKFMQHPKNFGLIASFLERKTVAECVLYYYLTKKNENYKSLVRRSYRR

| Structure (SMILES) | IC50 (HDAC1) | IC50 (HDAC3) | IC50 (HDAC2) |
| --- | --- | --- | --- |
| O=C(NNCCC1CCCC1)c1ccc(Br)cc1 [RLS2-219, 4-bromo-N′-(2-cyclopentylethyl)benzohydrazide] | 7.4 µM | 1.08 µM | 7.65 µM |
| CCCCNNC(=O)c1ccc(OC)c(OC)c1 [RLS3-11, N′-butyl-3,4-dimethoxybenzohydrazide] | 22.2 µM | 4 µM | 20.4 µM |
| O=C(NNCCc1ccccc1)c1ccc(Br)cc1 [RLS2-138, 4-bromo-N′-phenethylbenzohydrazide] | > 50 µM | > 50 µM | > 50 µM |
| CCNNC(=O)c1ccc2ccccc2c1 [RLS2-240, N′-ethyl-2-naphthohydrazide] | > 50 µM | > 50 µM | > 50 µM |
| CCCCNNC(=O)c1ccc([N+](=O)[O-])cc1 [RLS2-128, N′-butyl-4-nitrobenzohydrazide] | 21.3 µM | 2.47 µM | 21.2 µM |
| CCCCNNC(=O)c1ccc(F)cc1 [RLS2-123, N′-butyl-4-fluorobenzohydrazide] | 13.2 µM | 1.78 µM | 15.1 µM |
| CCCCNNC(=O)c1ccc2ccccc2c1 [RLS2-238, N′-butyl-2-naphthohydrazide] | 4.3 µM | – | 5.92 µM |
| NNC(=O)c1ccc2ccccc2c1 [RLS2-243, 2-naphthohydrazide] | > 50 µM | > 50 µM | > 50 µM |
| CCCCNNC(=O)c1ccc(OC)c(OC)c1 [RLS3-20] | > 50 µM | 13.8 µM | 30.1 µM |
| CCCCNNC(=O)c1ccc(Cl)cc1 [RLS2-133, N′-butyl-4-chlorobenzohydrazide] | 3.75 µM | 0.95 µM | 5.82 µM |

Other lines, results leading:

| IC50 (HDAC1) | IC50 (HDAC3) | IC50 (HDAC2) | Structure (SMILES) |
| --- | --- | --- | --- |
| > 50 µM | > 50 µM | > 50 µM | CCCCNNC(=O)c1ccccc1-c1ccccc1 [RLS3-4, N′-butylbiphenyl-2-carbohydrazide] |
| 3.5 µM | 1.65 µM | 6.68 µM | CCCNNC(=O)c1ccc2ccccc2c1 [RLS2-255, N′-propyl-2-naphthohydrazide] |
| > 50 µM | > 50 µM | > 50 µM | O=C(NNCC1CCCC1)c1ccc2ccccc2c1 [RLS2-254, N′-(cyclopentylmethyl)-2-naphthohydrazide] |
| 8.81 µM | 6.98 µM | 28.4 µM | O=C(NNCC1CCCC1)c1ccc(Br)cc1 [RLS2-256, 4-bromo-N′-(cyclopentylmethyl)benzohydrazide] |
| > 50 µM | > 50 µM | > 50 µM | O=C(NNCCCC1CCCC1)c1ccc(Br)cc1 [RLS2-257, 4-bromo-N′-(3-cyclopentylpropyl)benzohydrazide] |
| 72.3 µM | 42.4 µM | 79.6 µM | CCCCNNC(=O)c1ccccc1F [RLS2-305, N′-butyl-2-fluorobenzohydrazide] |
| 10.3 µM | 20 µM | 16.1 µM | CCCCCCNNC(=O)c1ccc(Br)cc1 [RLS2-284, 4-bromo-N′-hexylbenzohydrazide] |
| 11.8 µM | 0.8 µM | 7.4 µM | CCCCNNC(=O)c1ccc(OCC)c(OCC)c1 [RLS3-14, N′-butyl-3,4-diethoxybenzohydrazide] |
| 4.28 µM | 1.4 µM | 13.7 µM | CCCCNNC(=O)c1ccncc1 [RLS2-290, N′-butylisonicotinohydrazide] |
| > 50 µM | > 50 µM | > 50 µM | O=C(NNCCCC1CCCC1)c1ccc2ccccc2c1 [RLS2-249, N′-(3-cyclopentylpropyl)-2-naphthohydrazide] |
| 2.25 µM | 8.08 µM | 2.82 µM | CCCCCCNNC(=O)c1ccc(C(C)(C)C)cc1 [RLS2-283, 4-tert-butyl-N′-hexylbenzohydrazide] |
| 1.24 µM | 2.29 µM | 7.27 µM | CCCCNNC(=O)c1ccc(-c2cncnc2)cc1 [SR-4369, N′-butyl-4-(pyrimidin-5-yl)benzohydrazide] |
